Results: patent publication US6509377B1, “Use of a 2-hydroxy-4-trifluoromethylbenzoic acid derivatives as inhibitors of the activation of the nuclear transcription factor NF-κB” (J. Uriach & Cia, S.A., priority 1999, dated 2003)

Columns and labels:
β-actin = experiment: Expression of β-actin mRNA in HUVEC (RT-PCR, constitutive control gene); format: cell-based, human; conditions: 4 mM
Description: Primers used for the detection of VCAM-1 mRNA by RT-PCR were designed from the human gene sequence (EMBUGenBank AC: M30257), using the Wisconsin Package Version 9.1, Genetics Computer Group (GCG), Madison, Wis. Their sequences were 5′-TGTCACTGTMGCTGCMG-3′ and 5′-TTCCAGCCTGGTTAATTC-3′, corresponding to nucleotides 1090-1108 and 1589-1572 (L. Osbom et al., Cell 1989, 59(6), 1203-1211). Total RNA was extracted from cultured cells using the guanidium isothiocyanate method (P. Chomczynski and N. Sacchi, Anal Biochem. 1987, 162(1), 156-159). cDNA first strand was synthesized from total RNA by reverse transcription reaction. […] The relative amounts of each amplified cDNA were determined by measuring the density of the bands stained with ethidium bromide using the Gel Doc documentation system and the Molecular Analyst software from Bio-Rad Laboratories, Hercules, Calif. […]
Specifically, the effect of Triflusal (4 mM) and HTB (4 mM) on the regulation of the expression of VCAM-1 mRNA induced by TNF-α (100 U/ml) in HUVEC was studied. […] The PCR products were separated by electrophoresis in a 1.8% agarose gel and were later quantified. The molecular weight of the amplification products was determined from the electrophoretic migration of DNA size standards.

NF-κB = experiment: Activation of NF-κB induced by TNF-α in HUVEC (EMSA); format: cell-based, human; conditions: 2 and 4 mM, TNF-α 100 U/ml, 90 minutes
Protocol: Human umbilical vein endothelial cells (HUVEC) were obtained by the procedure of Dejana et al. (J. Cell Biol 1987, 104(5), 1403-1411) by treatment of the umbilical vein with. 0.2% collagenase P from C. histolyticum (Boehnnger Manheim GmbH, Manheim, Germany) for 20 minutes at 37° C. Next, cells were cultured in M199 medium (Flow Lab, Herts, U.K.) containing 100 U/ml penicillin, 100 μg/ml streptomycin, 2.5 μg/ml amphotercin B and 20% fetal calf serum. Primary cultures were plated in 25 cm^2 plastic flasks. After 24 hours cells were washed to remove those cells which had not adhered to the flask surface. Then, the same medium containing 10% fetal calf serum, 50 μg/ml endothelial cell growth supplement factor and 100 μg/ml heparn was added. After culturing for 5-7 days, cells reached confluence and were detached from the flask surface with 0.05% trypsin and 0.02% EDTA (Flow Lab). The reaction was inhibited by the addition of fetal calf serum, and then cells were washed and plated again in culture medium. Cells were grown to confluence in gelatin-coated flasks. Cells used for the experiments were from passages 2-7.
In this experiment, HUVEC cells were preincubated with Triflusal and HTB, at concentrations in both cases of 2 and 4 mM. Then these cells were stimulated with 100 U/ml TNF-α (Genzyme Diagnostics, Cambridge, Mass. USA) for 90 minutes. […]

Structure (SMILES) | effect on the expression of β-actin mRNA (β-actin) | inhibition of the activation of NF-κB induced by TNF-α (NF-κB)
O=C(O)c1ccc(C(F)(F)F)cc1O [HTB, 2-hydroxy-4-trifluoromethylbenzoic acid] | absence of effect | concentration-dependently inhibit
CC(=O)Oc1cc(C(F)(F)F)ccc1C(=O)O [triflusal, 2-Acetyloxy-4-trifluoromethylbenzoic acid, reference compound] | absence of effect | concentration-dependently inhibit
